Measured values as given in patent US9399045B2, “Inhibition of choroidal neovascularization” (Washington University, priority 2011, dated 2016).

Key:
[1] = system: choroidal neovascularization (CNV); experiment: Laser-induced CNV in old mice; assay type: in vivo, mouse; details: intraperitoneal, 25 or 50 mg/kg/day for 5 days prior to laser, FIG. 4h-i
Protocol: Rupture of Bruchs membrane with laser was used to initiate CNV in mice as described previously (Apte R S, Niederkorn J Y. Isolation and characterization of a unique natural killer cell inhibitory factor present in the anterior chamber of the eye. J. Immunol. 156:2667-2673, 1996). Briefly, mice were anesthetized by injecting ketamine hydrochloride (100 mg/kg) and xylazine (13.4 mg/kg) intraperitoneally, and their pupils were dilated with 1% tropicamide. Using argon green laser, four laser burns were placed around the optic nerve (0.1 second, 50 μm, and 110 mW). Seven days after laser, mice were anesthetized as described above and perfused intraventricularly with FITC-dextran (Sigma-Aldrich). Mice were euthanized in a CO2 chamber, and their eyes were harvested for tissue processing. […]
Micro scissors were used to make four radial incisions in the sclerochoroidal “eyecup” to prepare choroidal flat mounts on glass slides. […] The choroidal flat mounts were analyzed for the presence of CNV by confocal microscopy. The extent of choroidal neovascularization was quantified by Metamorph Imaging software. […]
(§1) Old mice (>18 months) were given a daily intraperitoneal injection of vehicle, 25 mg/kg or 50 mg/kg TO-901317. After five consecutive days treatment, CNV was induced in one set of mice (5 of each group) and analyzed as described above. […]

ABCG1 gene expression = ABCG1 gene expression in peritoneal macrophages treated with LXR agonist (real time qPCR); assay type: cell-based, mouse; details: peritoneal young or old macrophages, 24 hours, 0 to 10 μM, FIG. 4a-b
Protocol: (§2) Peritoneal macrophages recruitment was elicited by intraperitoneal injection of 4% thioglycollate. Five days after injection, macrophages were harvested and cultured in RPMI-1640 overnight (Gibco, Grand Island, N.Y.). Macrophages were then washed with RPMI-1640 and non-adherent cells removed. Total RNA was prepared from splenic macrophage, peritoneal macrophages, retina, choroid or PBMCs using the RNeasy mini kit (Qiagen inc., Valencia, Calif.). cDNA was prepared using the High Capacity cDNA Archive Kit (Applied Biosystems) and PCR amplifications of cDNA were performed using Taqman probe-based gene expression assay (Applied Biosystems) as previously described (Kelly, J., et al., Senescence regulates macrophage activation and angiogenic fate at sites of tissue injury in mice. J Clin Invest 117, 3421-3426, 2007). Primer and probe sets were as follows: ActB. Mm00607939_s1; ABCA1, Mm00442649_ml; ABCG1, Mm01348250_ml; IL-6, Mm00446190_ml; FasL, Mm00438864_ml; IL-10, Mm99999062_ml; 18s rRNA. Hs99999901_s1; ABCA1, Hs00442663_ml; ABCG1: Hs 01555199_gl; IL10, Hs00961622_ml. Young and old peritoneal macrophages were treated with Liver X Receptor (LXR) agonist, TO-901317 (Sigma-Aldrich, St. Louis, Mo.) for 24 hours. […] Treated macrophages were analyzed for ABCA1 and ABCG1 gene expression and their ability to inhibit HMVECs proliferation was tested.

ABCA1 gene expression = ABCA1 gene expression in peritoneal macrophages treated with LXR agonist (real time qPCR); assay type: cell-based, mouse; details: peritoneal young or old macrophages, 24 hours, 0 to 10 μM, FIG. 4a-b
Protocol: as §2

HMVECs = experiment: Vascular endothelial cell proliferation assay: HMVECs co-cultured with treated peritoneal macrophages, [3H] thymidine; assay type: cell-based, human
Protocol: Cell proliferation was measured with an adaptation of a previously described method (Khan, A. A. & Apte, R. S. An assay for macrophage-mediated regulation of endothelial cell proliferation. Immunobiology 213, 695-699, 2008). HMVECs (1×10^4 cells) in log phase were cultured in 96-well round-bottomed plates for adherence. HMVECS cells were then co-cultured with peritoneal macrophages (1:25 ratio) and incubated with 5 μCi/ml [^3H] thymidine (PerkinElmer) for 24 hours. Cells were harvested onto glass fiber filters (Packard) and incorporated [3H] thymidine was read using TopCount NXT (PerkinElmer).
Young and old peritoneal macrophages were treated with Liver X Receptor (LXR) agonist, TO-901317 (Sigma-Aldrich, St. Louis, Mo.) for 24 hours. LXR agonist was dissolved in DMSO (vehicle) and treatment dosage ranged from 0 to 10 μM. Treated macrophages were analyzed for ABCA1 and ABCG1 gene expression and their ability to inhibit HMVECs proliferation was tested.
Peritoneal macrophages were transfected with 50 nM miScript miR33 inhibitor (anti-miR33) or negative control inhibitor (con anti-miR) using HiPerFect Transfection reagent (Qiagen). The transfection efficiency of macrophages was assessed using BLOCK-iT Fluorescent Oligo (Invitrogen). After miR33 inhibition, target genes and proteins were analyzed by qPCR and Western blot.

ABCA1 expression = ABCA1 expression in tissues of old mice after 5 days of intraperitoneal TO-901317; assay type: in vivo, mouse; details: 25 or 50 mg/kg/day for 5 days, FIG. 4e-g and FIG. 10
Protocol: (§3) Total RNA was prepared from splenic macrophage, peritoneal macrophages, retina, choroid or PBMCs using the RNeasy mini kit (Qiagen inc., Valencia, Calif.). cDNA was prepared using the High Capacity cDNA Archive Kit (Applied Biosystems) and PCR amplifications of cDNA were performed using Taqman probe-based gene expression assay (Applied Biosystems) as previously described (Kelly, J., et al., Senescence regulates macrophage activation and angiogenic fate at sites of tissue injury in mice. J Clin Invest 117, 3421-3426, 2007). Primer and probe sets were as follows: ActB. Mm00607939_s1; ABCA1, Mm00442649_ml; ABCG1, Mm01348250_ml; IL-6, Mm00446190_ml; FasL, Mm00438864_ml; IL-10, Mm99999062_ml; 18s rRNA. […]
(§4) Whole cell lysate was extracted from mouse peritoneal macrophages or human PBMCs using lysis buffer (50 mM Tris (pH=7.4), 150 mM NaCl, 1% EDTA, 10% TritonX, and 1% SDS) with proteinase inhibitor (Complete, Roche). […] Proteins were detected and analyzed using the Odyssey Infrared Imaging System (LI-COR Biosciences, Lincoln, Nebr.). Band densities of ABCA1 and ABCG1 were quantified and normalized to β-actin.
as §1

ABCG1 expression = ABCG1 expression in tissues of old mice after 5 days of intraperitoneal TO-901317; assay type: in vivo, mouse; details: 25 or 50 mg/kg/day for 5 days, FIG. 4e-g and FIG. 10
Protocol: as §3, §4, §1

## O=S(=O)(c1ccccc1)N(CC(F)(F)F)c1ccc(C(O)(C(F)(F)F)C(F)(F)F)cc1 [TO-901317, N-(2,2,2-trifluoro-ethyl)-N-[4-(2,2,2-tri-fluoro-1-hydroxy-1-trifluoromethyl-ethyl)-phenyl]-benzenesulfonamide]
[1]
  CNV compared to vehicle treated old mice: significant and dose dependent reduction in CNV
ABCG1 gene expression
  ABCG1 gene expression: dose-dependent upregulation
ABCA1 gene expression
  ABCA1 gene expression: dose-dependent upregulation
HMVECs; Abca1−/− macrophages treated with LXR agonist
  ability of treated macrophages to inhibit HMVECs proliferation: does not restore their ability to inhibit HMVECs proliferation
HMVECs; old macrophages treated with LXR agonist, co-cultured with HMVECs, FIG. 4d
  ability of treated macrophages to inhibit endothelial cell proliferation: completely restored their ability to inhibit endothelial cell proliferation
ABCA1 expression
  ABCA1 expression compared to vehicle treated mice: strong systemic upregulation
ABCG1 expression
  ABCG1 expression compared to vehicle treated mice: strong systemic upregulation
